Experimental findings from patent US20240109881A1, “Heteroaryl Compounds as Ligand Directed Degraders of IRAK4” (Bristol-Myers Squibb Company, priority 2022, published 2024) are described below.

The structures appear in SMILES notation.

This experiment concerns the target T1, IRAK4 (Homo sapiens, UniProt Q9NWZ3).
T1 construct: endogenous in cells; host or cells: THP-1 cells
T1 sequence (Q9NWZ3 1-460): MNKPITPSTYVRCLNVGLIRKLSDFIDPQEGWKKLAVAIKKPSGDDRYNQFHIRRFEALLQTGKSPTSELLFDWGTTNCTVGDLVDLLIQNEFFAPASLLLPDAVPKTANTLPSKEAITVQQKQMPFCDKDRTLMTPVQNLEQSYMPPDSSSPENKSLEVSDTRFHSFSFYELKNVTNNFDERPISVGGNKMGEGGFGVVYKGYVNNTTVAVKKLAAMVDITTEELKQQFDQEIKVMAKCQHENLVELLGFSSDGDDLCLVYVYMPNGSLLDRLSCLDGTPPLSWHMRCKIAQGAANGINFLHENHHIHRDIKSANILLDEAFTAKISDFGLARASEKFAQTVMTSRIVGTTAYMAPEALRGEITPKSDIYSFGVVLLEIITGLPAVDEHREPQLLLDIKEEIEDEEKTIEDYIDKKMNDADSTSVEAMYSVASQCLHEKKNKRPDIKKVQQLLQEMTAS
The experiment is described as follows: ALE THP1 HTRF (Advanced Lipoxidation End Product THP1 Homogeneous Time Resolved Fluorescence). The class given is cell-based. The note with it: THP1 cells. The method, then: For Homogenous Time Resolved Fluorescence (HTRF) assays, a Cisbio HTRF kit was used, which included: Lysis Buffer #1 4×, Blocking Reagent #3 100×, 20× Antibody 1 (Anti-IRAK4 d2), 20× Antibody 2 (Anti-IRAK4 k), and Detection Buffer.
4× Lysis Buffer was stored at 4° C. For use as 1× Lysis buffer, the 4× solution was diluted with de-ionized water (distilled water, Gibco Cat. #15230279) and 100× Blocking Reagent in a 1:3:0.04 volume ratio.
20× Antibody Solution aliquots were stored in −80° C. and the Detection Buffer was stored in 4° C. For use as a 1× Antibody Solution, the 20× Antibody Solution aliquot was diluted with Detection Buffer in a 1:19 volume ratio.
Cells were lysed at room temperature for 45 min with shaking. A BCA protein assay was performed and normalization was conducted to the desired total protein concentration with 1× lysis buffer. Next, 1× Antibody Solutions were prepared by adding 380 μL Detection Buffer to 20 μL 20× Antibody Solution aliquots and mixing well. 1× Antibody Solutions were combined 1:1 and briefly vortexed. For control wells, 20 μL 1× anti IRAK4-k Antibody Solution was saved. The 384-well plate (ProxiPlate-384 Plus, Perkin Elmer Cat. #6008289) was loaded by adding 4 μL of the mixed Antibody Solution to empty wells using a single channel repeater. Using a multi-channel repeater, 16 μL lysate was added per well, and any bubbles that were formed were popped with 20 μL pipette tips and Kimwipe edges. In column 10, triplicates of each control was prepared. In wells A10, B10, and C10, buffer control was prepared by adding 16 μL Lysis Buffer and 4 μL Detection Buffer. In wells D10, E10, and F10, cryptate control was prepared by adding 16 μL Lysis Buffer, 2 μL Detection Buffer, and 2 μL 1× anti IRAK4-k Antibody Solution. In wells G10, H10, and I10, a negative control was prepared by adding 16 μL Lysis Buffer and 4 μL mixed Antibody Solution. The plate was sealed with a clear seal and covered with an aluminum lid. The plate was spun down at 800 g for 5 min and incubated in the dark at room temperature overnight. The next day, the plate was spun down at 800 g for 5 min. The samples were analyzed by a plate reader (Envision, PerkinElmer) using the Desnor 384 HTRF program.
(In TR-FRET formats the signal depends on donor and acceptor labels being close together.)
As a reminder, the EC50 is the concentration at which the effect is half-maximal. Read a low EC50 as a more potent agent. Consider `C[C@H](C#N)Nc1cc(-n2ncc3cc(C#N)c(N)nc32)ncc1C(=O)N[C@H]1CC[C@H](CCN2CCC(c3ccc(C4CCC(=O)NC4=O)cc3)CC2)CC1` (some centres unmarked) [P-146], for which the “ALE THP1 HTRF YMIN” value came to 8.0% and the half-maximal effective concentration (EC50) amounted to 0.001 µM.

As for `N#Cc1cnc2c(ccn2-c2cc(NC3CCCC3)c(C(=O)NC3CCC(C(=O)N4CCN(c5ccc6c(c5)C(=O)N(C5CCC(=O)NC5=O)C6=O)CC4)CC3)cn2)c1` (centres unmarked) [P-6], the “ALE THP1 HTRF YMIN” value was determined as 30.4% and the midpoint of the response, the EC50, lay at 0.018 µM.

For `C[C@H](C#N)Nc1cc(-n2cc(F)c3cc(C#N)cnc32)ncc1C(=O)N[C@H]1CC[C@H](CCN2CCN(c3ccc(C4CCC(=O)NC4=O)cc3)CC2)CC1` (some centres unmarked) [P-145], the “ALE THP1 HTRF YMIN” value was found to be 11.0% and the EC50 stood at 0.035 µM.

As to `CCCNc1cc(-n2ncc3cc(C#N)cnc32)ncc1C(=O)N[C@H]1CC[C@H](CCN2CCN(c3ccc(C4CCC(=O)NC4=O)cc3)CC2)CC1` (some centres unmarked) [P-107], the “ALE THP1 HTRF YMIN” value turned out to be 9.1% and the EC50 was 0.014 µM.

In the case of `N#CCNc1cc(-n2ncc3cc(C#N)cnc32)ncc1C(=O)NC1CCC(CCN2CCN(c3ccc(C4CCC(=O)NC4=O)cc3)CC2)CC1` (centres unmarked) [P-89], the “ALE THP1 HTRF YMIN” value was found to be 10.3% and the response was half-maximal at 0.023 µM (EC50).

Turning to `O=C1CCC(c2ccc(N3CCN(CCC4CCC(NC(=O)c5cnc(Nc6ccc7ncsc7c6)cc5NC5CCCC5)CC4)CC3)cc2)C(=O)N1` (centres unmarked) [P-73], the “ALE THP1 HTRF YMIN” value was determined as 8.1% and the EC50 came to 0.058 µM.

`CNc1cc(-n2ncc3cc(C#N)cnc32)ncc1C(=O)NC1CCC(CCN2CCN(c3ccc(C4CCC(=O)NC4=O)cc3)CC2)CC1` (centres unmarked) [P-86]: the “ALE THP1 HTRF YMIN” value is given as 11.8% and the midpoint of the response, the EC50, lay at 0.09 µM.

On to `N#Cc1cnc2c(cnn2-c2cc(NC3CC3)c(C(=O)NC3CCC(CCN4CCC(c5ccc(C6CCC(=O)NC6=O)cc5)CC4)CC3)cn2)c1` (centres unmarked) [P-72], for which the “ALE THP1 HTRF YMIN” value worked out at 9.5% and the EC50 came out at 0.005 µM.

Turning to `N#Cc1cnc2c(ccn2-c2cc(NC3CC3)c(C(=O)NC3CCC(CN4CCC(CNc5ccc(C6CCC(=O)NC6=O)cc5)CC4)CC3)cn2)c1` (centres unmarked) [P-42], the “ALE THP1 HTRF YMIN” value was determined as 27.6% and the midpoint of the response, the EC50, lay at 0.123 µM.

`N#Cc1cnc2c(cnn2-c2cc(NC3CC3)c(C(=O)N[C@H]3CC[C@H](C(=O)NC4CCN(c5ccc6c(c5)CN(C5CCC(=O)NC5=O)C6=O)CC4)CC3)cn2)c1` (some centres unmarked) [P-129]: the “ALE THP1 HTRF YMIN” value is reported as 24.2% and the midpoint of the response, the EC50, lay at 0.047 µM.

Turning to `C[C@H](C#N)Nc1cc(-c2cnc3cc(C#N)cnn23)ncc1C(=O)N[C@H]1CC[C@H](CCN2CCC(c3ccc(C4CCC(=O)NC4=O)cc3)CC2)CC1` (some centres unmarked) [P-148], the “ALE THP1 HTRF YMIN” value is recorded as 11.0% and a half-maximal response (EC50) required 0.016 µM.

On to `C[C@@H]1CN(C(=O)C2CCC(NC(=O)c3cnc(-n4ncc5cc(C#N)cnc54)cc3NC3CCCC3)CC2)CCN1c1ccc2c(c1)C(=O)N(C1CCC(=O)NC1=O)C2=O` (some centres unmarked) [P-21], for which the “ALE THP1 HTRF YMIN” value is 40.3% and a half-maximal effect (EC50) was put at 0.022 µM.

On to `CC(F)(F)CNc1cc(-n2ncc3cc(C#N)cnc32)ncc1C(=O)NC1CCC(CCN2CCN(c3ccc(C4CCC(=O)NC4=O)cc3)CC2)CC1` (centres unmarked) [P-65], for which the “ALE THP1 HTRF YMIN” value came out at 7.3% and the midpoint of the response, the EC50, lay at 0.01 µM.

On to `N#Cc1cnc2c(cnn2-c2cc(NC3CCCC3)c(C(=O)NC3CCC(CCN4CCN(c5ccc(C6CCC(=O)NC6=O)cc5)CC4)CC3)cn2)c1` (centres unmarked) [P-35], for which the “ALE THP1 HTRF YMIN” value is reported as 8.4% and the EC50 amounted to 0.041 µM.

In the case of `N#Cc1cnc2c(cnn2-c2cc(N[C@H]3CCC[C@H]3O)c(C(=O)NC3CCC(CCN4CCN(c5ccc(C6CCC(=O)NC6=O)cc5)CC4)CC3)cn2)c1` (some centres unmarked) [P-66], the “ALE THP1 HTRF YMIN” value came out at 11.2% and the EC50 was determined as 0.006 µM.

`O=C1CCC(N2C(=O)c3ccc(N4CCN(C[C@H]5CC[C@H](NC(=O)c6cnc(Nc7ccc8ncsc8c7)cc6NC6CCCC6)CC5)CC4)cc3C2=O)C(=O)N1` (some centres unmarked) [P-3, 6-(1,3-benzothiazol-6-ylamino)-4-(cyclopentylamino)-N-[4-[[4-[2-(2,6-dioxo-3-piperidyl)-1,3-dioxo-isoindolin-5-yl]piperazin-1-yl]methyl]cyclohexyl]pyridine-3-carboxamide]: the “ALE THP1 HTRF YMIN” value turned out to be 35.6% and the half-maximal effective concentration (EC50) was 0.273 µM.
